“And” between values parts separate entries of the source, which are not always exact repeats. Identical values can stand only once.
What was measured:
Assay type in all cases: cell-based
[1] = tested on: NO; assay: NO level in LPS-mediated RAW264.7 macrophages culture medium (spectrophotometric kit); conditions: LPS group (CTRL 6.47 ± 1.29), mean ± S.D., n = 3
Procedure: (§1) The culture medium was collected and centrifuged at 3000× g for 10 min. Then, the inflammatory cytokines levels of TNF-α (MB-50051A), IL-1β (MB-50064B) and IL-6 (MB-50054A) in the culture medium were determined with ELISA kits (Jiangsu Enzyme marker Biotechnology Co., Ltd., Yancheng, China). […] (7) Add 50 μL of stop solution to each well, and measure its absorbance value at 450 nm wavelength. The activities of SOD, GSH-Px and the levels of ROS and Nitric oxide (NO) in macrophages were determined with spectrophotometric kits. […] The absorbance value of miscible liquid was measured at 450 nm wavelength by a multifunctional microplate reader; GSH-Px: 0.2 mL of sample was mixed with 0.2 mL GSH-Px (1 mmol/L) and performed at 37 °C for 5 min. […] The absorbance value was measured at 412 nm wavelength by a multifunctional microplate reader; ROS: DCFH-DA probe was added directly to serum-free medium: DCFH-DA was generally diluted with serum-free medium at a final concentration of 10 µM at 1:1000. […] In general, obvious green fluorescence can be observed in positive control cells after 20 min of stimulation. […] It can also be detected according to FITC fluorescence detection conditions. The results were expressed as fluorescence values.

[2] = tested on: TNF-α; assay: TNF-α level by ELISA in culture medium, model of LPS-mediated RAW264.7 macrophage inflammation; conditions: LPS group: LPS (1.0 μg/mL) alone, 24 h; mean ± S.D., n = 3
Procedure: (§2) The anti-inflammatory activity of the peptides was determined according to the methods of a previous study. The anti-inflammatory activity of different fractions was evaluated by measuring the levels of the inflammatory cytokines (TNF-α, IL-1β and IL-6) in a model of LPS-induced macrophage inflammation with ELISA kits (Jiangsu Enzyme marker Biotechnology Co., Ltd., Yancheng, China). […] A 20 mmol/L Tris-HCl (pH 8.0) solution was used as the start buffer and 20 mmol/L Tris-HCl/1 mol/L NaCl (pH 8.0) was used as elution buffer. Elution program: (1) wash with 5 column volumes of starting buffer; (2) elute with 10 column volumes of 50% elution buffer and 50% start buffer; (3) elute with 5 column volumes of 100% elution buffer. The above flow rates were 5 mL/min. The fractions were detected at 280 nm by an ultraviolet detector and collected by an automatic fraction collector.
(§3) The method of RAW264.7 macrophage culture and treatments were based on the study of Li et al.. […] Macrophages from passages 5 to 10 were selected to seed on 96-well culture plates at a density of 4 × 10^5 cells/well and cultured with different concentrations of LPS (0.5 μg/mL, 1.0 μg/mL and 2.0 μg/mL) for 24 h. The optimal concentration of LPS for inducing inflammation in the RAW264.7 macrophage was ensured according to cell viability. […] The ability of GBP to protect RAW264.7 macrophages was evaluated. […]

[3] = tested on: IL-6; assay: IL-6 level by ELISA in culture medium, model of LPS-mediated RAW264.7 macrophage inflammation; conditions: LPS group: LPS (1.0 μg/mL) alone, 24 h; mean ± S.D., n = 3
Procedure: as §2, §3

[4] = tested on: GSH-Px; assay: GSH-Px activity in LPS-mediated RAW264.7 macrophages; conditions: LPS alone; mean ± S.D., n = 3
Procedure: as §1

lipopolysaccharide [LPS]
level of NO [1]: 28.63 ± 2.48 μM/L | level of TNF-α [2]: 271.35 ± 17.35 pg/mL and 273.77 ± 11.93 pg/mL | level of IL-6 [3]: 373.01 ± 12.49 pg/mL | level of GSH-Px [4]: 44.63 ± 2.72 U/mg prot
